Reference: BigSolDB 2.1

O=C(O)c1ccccc1O
solubility (mole fraction)
Conditions	298.2 K	308.2 K	318.2 K	328.2 K	338.2 K
in acetone	0.137	0.139	0.156	0.196	–
in isopropanol	0.144	0.161	0.173	0.195	0.214
in n-propanol	0.132	0.15	0.163	0.179	0.195
in water	0.000295	0.000355	0.000507	0.000699	0.000944
